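Protocol summary: plate cells (96-well), add compound at 5 concentrations, incubate 48 h, interpolate endpoints linearly. TGI: total growth inhibition.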
Assays:
Assay in all cases: DTP human tumour cell line panel, 48 h
[1] = tested on: 786-0 renal
[2] = tested on: A498 renal
[3] = tested on: A549 NSCLC
[4] = tested on: ACHN renal
[5] = tested on: BT-549 breast
[6] = tested on: CAKI-1 renal
[7] = tested on: CCRF-CEM leukemia
[8] = tested on: COLO 205 colon
[9] = tested on: DU-145 prostate
[10] = tested on: EKVX NSCLC
[11] = tested on: HCC-2998 colon
[12] = tested on: HCT-116 colon
[13] = tested on: HL-60(TB) leukemia
[14] = tested on: HOP-62 NSCLC
[15] = tested on: HOP-92 NSCLC
[16] = tested on: HS 578T breast
[17] = tested on: HT29 colon
[18] = tested on: IGROV1 ovarian
[19] = tested on: KM12 colon
[20] = tested on: LOX IMVI melanoma
[21] = tested on: M14 melanoma
[22] = tested on: MALME-3M melanoma
[23] = tested on: MDA-MB-231 breast
[24] = tested on: MDA-MB-435
[25] = tested on: MDA-N
[26] = tested on: MOLT-4 leukemia
[27] = tested on: NCI-H23 lung
[28] = tested on: NCI-H460 lung
[29] = tested on: NCI-H522 lung
[30] = tested on: OVCAR-3 ovarian
[31] = tested on: OVCAR-4 ovarian
[32] = tested on: OVCAR-5 ovarian
[33] = tested on: PC-3 prostate
[34] = tested on: RPMI-8226 leukemia
[35] = tested on: SF-268 CNS
[36] = tested on: SF-295 CNS
[37] = tested on: SK-MEL-2 melanoma
[38] = tested on: SK-MEL-28 melanoma
[39] = tested on: SK-MEL-5 melanoma
[40] = tested on: SK-OV-3 ovarian
[41] = tested on: SN12C renal
[42] = tested on: SNB-19 CNS
[43] = tested on: SNB-75 CNS
[44] = tested on: SR leukemia
[45] = tested on: SW-620 colon
[46] = tested on: T-47D breast
[47] = tested on: U251 CNS
[48] = tested on: UACC-257 melanoma
[49] = tested on: UACC-62 melanoma
[50] = tested on: UO-31 renal
[51] = tested on: HCT-15 colon
[52] = tested on: K-562 leukemia
[53] = tested on: MCF7 breast
[54] = tested on: NCI-H226 lung
[55] = tested on: NCI/ADR-RES ovarian
[56] = tested on: OVCAR-8 ovarian
[57] = tested on: RXF 393 renal
[58] = tested on: SF-539 CNS
[59] = tested on: TK-10 renal

Question: Which results are given for `NNC(=S)N1CCN(C(=S)NN)CC1`?
Answer: TGI [1]: > 100 µM; TGI [2]: > 100 µM; TGI [3]: > 100 µM; TGI [4]: > 100 µM; TGI [5]: > 100 µM; TGI [6]: > 100 µM; TGI [7]: > 100 µM; TGI [8]: > 100 µM; TGI [9]: > 100 µM; TGI [10]: > 100 µM; TGI [11]: > 100 µM; TGI [12]: > 100 µM; TGI [13]: > 100 µM; TGI [14]: > 100 µM; TGI [15]: > 100 µM; TGI [16]: > 100 µM; TGI [17]: > 100 µM; TGI [18]: > 100 µM; TGI [19]: > 100 µM; TGI [20]: > 100 µM; TGI [21]: > 100 µM; TGI [22]: > 100 µM; TGI [23]: > 100 µM; TGI [24]: > 100 µM; TGI [25]: > 100 µM; TGI [26]: > 100 µM; TGI [27]: > 100 µM; TGI [28]: > 100 µM; TGI [29]: > 100 µM; TGI [30]: > 100 µM; TGI [31]: > 100 µM; TGI [32]: > 100 µM; TGI [33]: > 100 µM; TGI [34]: > 100 µM; TGI [35]: > 100 µM; TGI [36]: > 100 µM; TGI [37]: > 100 µM; TGI [38]: > 100 µM; TGI [39]: > 100 µM; TGI [40]: > 100 µM; TGI [41]: > 100 µM; TGI [42]: > 100 µM; TGI [43]: > 100 µM; TGI [44]: > 100 µM; TGI [45]: > 100 µM; TGI [46]: > 100 µM; TGI [47]: > 100 µM; TGI [48]: > 100 µM; TGI [49]: > 100 µM; TGI [50]: > 100 µM

Question: With `Cn1c(=O)c2c(ncn2CN2CCN(Cn3cnc4c3c(=O)n(C)c(=O)n4C)CC2)n(C)c1=O` as the compound, how does the TGI [1] read?
Answer: Its TGI is over 100 µM.

Question: And the TGI [2]?
Answer: Its TGI is over 100 µM.

Question: And the TGI [3]?
Answer: Its TGI is over 100 µM.

Question: What about the TGI [4] of the same compound?
Answer: Its TGI is over 100 µM.

Question: And the TGI [5]?
Answer: The TGI was over 100 µM.

Question: And the TGI [6]?
Answer: The TGI was over 100 µM.

Question: And the TGI [7]?
Answer: The TGI was 39.5 µM.

Question: What about the TGI [8] of the same compound?
Answer: Its TGI is over 100 µM.

Question: And the TGI [9]?
Answer: The TGI was over 100 µM.

Question: What about the TGI [10] of the same compound?
Answer: The TGI was over 100 µM.

Question: And the TGI [12]?
Answer: The TGI was 34.6 µM.

Question: What about the TGI [51] of the same compound?
Answer: Its TGI is over 100 µM.

Question: What about the TGI [13] of the same compound?
Answer: The TGI was 54 µM.

Question: And the TGI [14]?
Answer: Its TGI is over 100 µM.

Question: What about the TGI [15] of the same compound?
Answer: The TGI was over 100 µM.

Question: What about the TGI [16] of the same compound?
Answer: Its TGI is over 100 µM.

Question: And the TGI [17]?
Answer: Its TGI is over 100 µM.

Question: And the TGI [18]?
Answer: The TGI was over 100 µM.

Question: And the TGI [52]?
Answer: Its TGI is over 100 µM.

Question: And the TGI [19]?
Answer: Its TGI is over 100 µM.

Question: And the TGI [20]?
Answer: Its TGI is 62.4 µM.

Question: What about the TGI [21] of the same compound?
Answer: Its TGI is over 100 µM.

Question: What about the TGI [22] of the same compound?
Answer: The TGI was over 100 µM.

Question: And the TGI [53]?
Answer: The TGI was 35.7 µM.

Question: And the TGI [23]?
Answer: The TGI was over 100 µM.

Question: And the TGI [24]?
Answer: Its TGI is over 100 µM.

Question: And the TGI [25]?
Answer: The TGI was over 100 µM.

Question: What about the TGI [26] of the same compound?
Answer: The TGI was 41.4 µM.

Question: And the TGI [54]?
Answer: Its TGI is over 100 µM.

Question: And the TGI [27]?
Answer: The TGI was over 100 µM.

Question: And the TGI [28]?
Answer: Its TGI is 57.8 µM.

Question: And the TGI [29]?
Answer: The TGI was over 100 µM.

Question: What about the TGI [55] of the same compound?
Answer: Its TGI is over 100 µM.

Question: And the TGI [30]?
Answer: Its TGI is over 100 µM.

Question: And the TGI [31]?
Answer: Its TGI is over 100 µM.

Question: And the TGI [32]?
Answer: Its TGI is over 100 µM.

Question: What about the TGI [56] of the same compound?
Answer: Its TGI is over 100 µM.

Question: What about the TGI [33] of the same compound?
Answer: The TGI was over 100 µM.

Question: What about the TGI [34] of the same compound?
Answer: The TGI was 49.5 µM.

Question: And the TGI [57]?
Answer: Its TGI is 44.1 µM.

Question: What about the TGI [35] of the same compound?
Answer: The TGI was over 100 µM.

Question: And the TGI [36]?
Answer: Its TGI is over 100 µM.

Question: What about the TGI [58] of the same compound?
Answer: The TGI was over 100 µM.

Question: And the TGI [37]?
Answer: The TGI was over 100 µM.

Question: What about the TGI [38] of the same compound?
Answer: Its TGI is over 100 µM.

Question: And the TGI [39]?
Answer: The TGI was over 100 µM.

Question: And the TGI [40]?
Answer: Its TGI is over 100 µM.

Question: And the TGI [41]?
Answer: The TGI was over 100 µM.

Question: What about the TGI [42] of the same compound?
Answer: Its TGI is over 100 µM.

Question: What about the TGI [43] of the same compound?
Answer: The TGI was over 100 µM.

Question: And the TGI [44]?
Answer: Its TGI is over 100 µM.

Question: And the TGI [45]?
Answer: The TGI was over 100 µM.

Question: What about the TGI [46] of the same compound?
Answer: Its TGI is 89.1 µM.

Question: And the TGI [59]?
Answer: The TGI was over 100 µM.

Question: What about the TGI [47] of the same compound?
Answer: Its TGI is over 100 µM.

Question: And the TGI [48]?
Answer: Its TGI is over 100 µM.

Question: And the TGI [49]?
Answer: The TGI was over 100 µM.

Question: And the TGI [50]?
Answer: Its TGI is over 100 µM.
